This note sets out measurements from ChEMBL document CHEMBL5055654, “Discovery of 5-methylpyrimidopyridone analogues as selective antimycobacterial agents” (Bioorg Med Chem, 2021).

≈ marks a conversion by molar mass, not a printed value. Calls of active or inactive are those of the source. The rule behind the calls is not given here.

One may read the MIC as the lowest concentration that inhibits growth of the organism. For orientation: IC50 means the concentration that gives 50% inhibition. As a reminder, the Kd is a measure of binding affinity in units of concentration.

The test system of assay [1] is Mycobacterium tuberculosis. As to the kind of experiment: Antitubercular activity against Mycobacterium tuberculosis mc2 6230 assessed as inhibition of bacterial growth incubated for 7 days. The assay is classed as functional. The following applies: mc2 6230, 168 h, time 7 day.
Another assay concerns Escherichia coli. In words: Antibacterial activity against Escherichia coli at 10 uM incubated for 16 hrs by microtiter reader analysis. It counts as functional, organism-based.
The subject of the next assay is Salmonella. As to the kind of experiment: Antibacterial activity against Salmonella at 10 uM incubated for 16 hrs by microtiter reader analysis. The assay is classed as functional, organism-based.
For the next assay, the system named is Vero. In words: Cytotoxicity against African green monkey Vero cells assessed as reduction in cell viability measured after 72 hrs by CCK8 assay. The assay is classed as cell-based. The following applies: Chlorocebus sabaeus. A general note: Tetrazolium dyes change colour on reduction, which living cells bring about.
Assay [2] can be described thus: Binding affinity to Mycobacterium tuberculosis PknB.

As for `Cc1c(-c2ccccc2Cl)c(=O)n(C23CC4CC(CC(C4)C2)C3)c2nc(N3CCN(CCO)CC3)ncc12`, the MIC in assay [1] was 64 µM (≈ 34.2 µg/mL). For `Cc1cc(Nc2ncc3c(C)c(-c4ccccc4Cl)c(=O)n(C45CC6CC(CC(C6)C4)C5)c3n2)ccc1N1CCN(C)CC1`, the outcome in the assay with Escherichia coli and in the assay with Salmonella was inactive. In addition, the 50% inhibitory concentration (IC50) in the assay with Vero was found to be 4.8 µM. Further, in assay [1], the MIC was 8 µM (≈ 4.87 µg/mL).

For the compound `Cc1c(-c2ccccc2Cl)c(=O)n(C23CC4CC(CC(C4)C2)C3)c2nc(N3CCC(O)CC3)ncc12`, the MIC in assay [1] was above 512 µM. Turning to `Cc1cc(Nc2ncc3c(C)c(-c4ccccc4Cl)c(=O)n(C45CC6CC(CC(C6)C4)C5)c3n2)ccc1N1CCC(C)CC1`, the MIC in assay [1] was above 512 µM. Turning to `Cc1cc(Nc2ncc3c(C)c(-c4cccc(Cl)c4)c(=O)n(C45CC6CC(CC(C6)C4)C5)c3n2)ccc1N1CCC(N(C)C)CC1`, the minimal inhibitory concentration (MIC) in assay [1] was above 512 µM. Same read-out and setting: the result for `Cc1cc(Nc2ncc3c(C)c(-c4ccccc4)c(=O)n(C45CC6CC(CC(C6)C4)C5)c3n2)ccc1N1CCC(N(C)C)CC1` reads 16 µM (≈ 9.65 µg/mL). On to `Cc1c(-c2ccccc2Cl)c(=O)n(C23CC4CC(CC(C4)C2)C3)c2nc(Nc3ccc(N4CCN(C)CC4)c(OC(C)C)c3)ncc12`, for which the result in the assay with Escherichia coli and in the assay on Salmonella was inactive. For the same compound, in the assay on Vero, the IC50 was 4.6 µM. Further, the minimal inhibitory concentration (MIC) in assay [1] turned out to be 8 µM (≈ 5.23 µg/mL). Regarding `Cc1c(-c2ccccc2Cl)c(=O)n(C23CC4CC(CC(C4)C2)C3)c2nc(N3CC(OC(C)C)C3)ncc12`, in assay [1], the minimum inhibitory concentration (MIC) is above 512 µM. Turning to `CCCCNc1ncc2c(C)c(-c3ccccc3Cl)c(=O)n(C34CC5CC(CC(C5)C3)C4)c2n1`, in assay [1], the MIC was 512 µM (≈ 244 µg/mL).

Regarding `Cc1c(-c2ccccc2Cl)c(=O)n(C23CC4CC(CC(C4)C2)C3)c2nc(NC(C)C)ncc12`, in assay [1], the MIC worked out at 256 µM (≈ 119 µg/mL). Regarding `Cc1c(-c2ccccc2Cl)c(=O)n(C23CC4CC(CC(C4)C2)C3)c2nc(Nc3ccc(N4CCN(C)CC4)cc3)ncc12`, in assay [1], the MIC came out at 512 µM (≈ 305 µg/mL).

As for `Cc1ccccc1-c1c(C)c2cnc(Nc3ccc(N4CCC(N(C)C)CC4)c(C)c3)nc2n(C23CC4CC(CC(C4)C2)C3)c1=O`, the MIC in assay [1] came out at 8 µM (≈ 4.93 µg/mL).

In the case of `COc1cc(Nc2ncc3c(C)c(-c4ccccc4Cl)c(=O)n(C45CC6CC(CC(C6)C4)C5)c3n2)ccc1N1CCN(C)CC1`, the minimal inhibitory concentration (MIC) in assay [1] worked out at 8 µM (≈ 5 µg/mL). Also, in assay [2], the dissociation constant Kd turned out to be 0.75 µM.

Take `Cc1cc(Nc2ncc3c(C)c(-c4ccccc4Cl)c(=O)n(C4CCCC4)c3n2)ccc1N1CCC(N(C)C)CC1`: the minimal inhibitory concentration (MIC) in assay [1] worked out at 32 µM (≈ 18.3 µg/mL).

On to `COc1ccccc1-c1c(C)c2cnc(Nc3ccc(N4CCC(N(C)C)CC4)c(C)c3)nc2n(C23CC4CC(CC(C4)C2)C3)c1=O`, for which the MIC in assay [1] is 16 µM (≈ 10.1 µg/mL).

With `CCNc1ncc2c(C)c(-c3ccccc3Cl)c(=O)n(C34CC5CC(CC(C5)C3)C4)c2n1`, the minimal inhibitory concentration (MIC) in assay [1] was determined as 256 µM (≈ 115 µg/mL). As to `Cc1cc(Nc2ncc3c(C)c(-c4ccccc4Cl)c(=O)n(C45CC6CC(CC(C6)C4)C5)c3n2)ccc1N1CCC(N(C)C)CC1`, the outcome in the assay on Escherichia coli and in the assay on Salmonella was inactive. Besides, the concentration for half-maximal inhibition (IC50) in the assay with Vero is 2.9 µM. Also, the minimum inhibitory concentration (MIC) in assay [1] is 4 µM (≈ 2.55 µg/mL). For `Cc1c(-c2ccccc2Cl)c(=O)n(C23CC4CC(CC(C4)C2)C3)c2nc(NC[C@H]3CCCO3)ncc12`, in assay [1], the MIC was above 512 µM. Same read-out and setting: the value for `Cc1c(-c2ccccc2Cl)c(=O)n(C23CC4CC(CC(C4)C2)C3)c2nc(NCCO)ncc12` was above 512 µM; that for `Cc1c(-c2ccccc2Cl)c(=O)n(C23CC4CC(CC(C4)C2)C3)c2nc(N3CCC(N(C)C)CC3)ncc12` was 16 µM (≈ 8.51 µg/mL); that for `Cc1c(-c2ccccc2Cl)c(=O)n(C23CC4CC(CC(C4)C2)C3)c2nc(NC3CCCCC3)ncc12` was 512 µM (≈ 258 µg/mL).

As for `COCCNc1ncc2c(C)c(-c3ccccc3Cl)c(=O)n(C34CC5CC(CC(C5)C3)C4)c2n1`, the MIC in assay [1] is above 512 µM.

Turning to `NNC(=O)c1ccncc1` [ISONIAZID], the minimum inhibitory concentration (MIC) in assay [1] is 0.2 µM (≈ 0.0274 µg/mL). On the same count and under the same terms, the result for `Cc1cc(Nc2ncc3c(C)c(-c4ccc(Cl)cc4)c(=O)n(C45CC6CC(CC(C6)C4)C5)c3n2)ccc1N1CCC(N(C)C)CC1` reads above 512 µM.

For the compound `Cc1c(-c2ccccc2Cl)c(=O)n(C23CC4CC(CC(C4)C2)C3)c2nc(N3CCC(N4CCOCC4)CC3)ncc12`, the MIC in assay [1] is above 512 µM. Same read-out and setting: the value for `Cc1c(-c2ccccc2Cl)c(=O)n(C23CC4CC(CC(C4)C2)C3)c2nc(N3CCN(C)CC3)ncc12` was above 512 µM; that for `Cc1c(-c2ccccc2Cl)c(=O)n(C23CC4CC(CC(C4)C2)C3)c2nc(N(C)CCO)ncc12` was above 512 µM.

On to `COc1nc2ccc(Br)cc2cc1[C@@H](c1ccccc1)[C@@](O)(CCN(C)C)c1cccc2ccccc12` [BEDAQUILINE], for which, in assay [1], the MIC worked out at 0.02 µM (≈ 0.0111 µg/mL). For `Cc1c(-c2ccccc2Cl)c(=O)n(C23CC4CC(CC(C4)C2)C3)c2nc(N3CCC(C)CC3)ncc12`, the minimum inhibitory concentration (MIC) in assay [1] was above 512 µM. Regarding `CCC(C)Nc1ncc2c(C)c(-c3ccccc3Cl)c(=O)n(C34CC5CC(CC(C5)C3)C4)c2n1` (stereo not given), the minimum inhibitory concentration (MIC) in assay [1] amounted to 512 µM (≈ 244 µg/mL).

For `Cc1cc(Nc2ncc3c(C)c(-c4ccccc4F)c(=O)n(C45CC6CC(CC(C6)C4)C5)c3n2)ccc1N1CCC(N(C)C)CC1`, in assay [1], the minimum inhibitory concentration (MIC) came out at 32 µM (≈ 19.9 µg/mL). Consider `Cc1cc(Nc2ncc3c(C)c(-c4ccccc4Cl)c(=O)n(C45CC6CC(CC(C6)C4)C5)c3n2)ccc1N1CCN(CCO)CC1`, for which the minimum inhibitory concentration (MIC) in assay [1] came out at 32 µM (≈ 20.5 µg/mL). With `Cc1cc(Nc2ncc3c(C)c(-c4ccccc4C#N)c(=O)n(C45CC6CC(CC(C6)C4)C5)c3n2)ccc1N1CCC(N(C)C)CC1`, the minimum inhibitory concentration (MIC) in assay [1] was 16 µM (≈ 10 µg/mL). With `Cc1c(-c2ccccc2Cl)c(=O)n(C23CC4CC(CC(C4)C2)C3)c2nc(NC3CCCC3)ncc12`, the minimal inhibitory concentration (MIC) in assay [1] was 265 µM (≈ 130 µg/mL).

Turning to `Cc1cc(Nc2ncc3c(C)c(-c4ccccc4Cl)c(=O)n(C4CCCCC4)c3n2)ccc1N1CCC(N(C)C)CC1`, the MIC in assay [1] came to 32 µM (≈ 18.7 µg/mL). On the same count and under the same terms, the value for `Cc1c(-c2ccccc2Cl)c(=O)n(C23CC4CC(CC(C4)C2)C3)c2nc(NC3CC3)ncc12` was 265 µM (≈ 122 µg/mL). Regarding `CCOc1cc(Nc2ncc3c(C)c(-c4ccccc4Cl)c(=O)n(C45CC6CC(CC(C6)C4)C5)c3n2)ccc1N1CCN(C)CC1`, the outcome with Escherichia coli and with Salmonella was inactive. Besides, in the assay on Vero, the IC50 worked out at 4.4 µM. Moreover, the MIC in assay [1] turned out to be 8 µM (≈ 5.11 µg/mL).
